These results are taken from patent US20230416275A1, “MODULATORS OF CYSTIC FIBROSIS TRANSMEMBRANE CONDUCTANCE REGULATOR” (VERTEX PHARMACEUTICALS INCORPORATED, priority 2020, published 2023).

Molecules are shown by their SMILES. Some results are limits rather than exact numbers.

Test [1] has as its target CFTR-mediated chloride transport in human intestinal epithelial enteroid cells (Homo sapiens, UniProt P13569). The test is described as follows: Membrane potential dye, Enteroid Assay A. It counts as cell-based. As to conditions: for Ent. A Max Activity (%): % of chloride transport of triple combination control (3 μM N-[(6-amino-2-pyridyl)sulfonyl]-6-(3-fluoro-5-isobutoxy-phenyl)-2-[(4S)-2,2,4-trimethylpyrrolidin-1-yl]pyridine-3-carboxamide, 3 μM tezacaftor, 300 nM acute ivacaftor); for EC50: enteroid cells, 18-24 hours incubation, acute 10 μM forskolin and 300 nM ivacaftor, read-out: Ent. A EC50. The method, then: Base medium (ADF+++) consisted of Advanced DMEM/Ham's F12, 2 mM Glutamax, 10 mM HEPES, […] penicillin/streptomycin.
Intestinal enteroid maintenance medium (IEMM) consisted of ADF+++, 1×B27 supplement, 1×N2 supplement, 1.25 mM N-acetyl cysteine, 10 mM Nicotinamide, 50 ng/mL hEGF, 10 nM Gastrin, 1 μg/mL hR-spondin-1, 100 ng/mL hNoggin, TGF-b type 1 inhibitor A-83-01, 100 μg/mL Primocin, 10 μM P38 MAPK inhibitor SB202190.
Bath 1 Buffer consisted of 1 mM MgCl2, 160 mM NaCl, 4.5 mM KCl, 10 mM HEPES, 10 mM Glucose, 2 mM CaCl2.
Chloride Free Buffer consisted of 1 mM Magnesium Gluconate, 2 mM Calcium Gluconate, 4.5 mM Potassium Gluconate, 160 mM Sodium Gluconate, 10 mM HEPES, 10 mM Glucose.
Bath1 Dye Solution consisted of Bath 1 Buffer, 0.04% Pluronic F127, 20 μM Methyl Oxonol, 30 μM CaCCinh-A01, 30 μM Chicago Sky Blue.
Chloride Free Dye Solution consisted of Chloride Free Buffer, 0.04% Pluronic F127, 20 μM Methyl Oxonol, 30 μM CaCCinh-A01, 30 μM Chicago Sky Blue.
Chloride Free Dye Stimulation Solution consisted of Chloride Free Dye Solution, 10 μM forskolin, 100 μM IBMX, and 300 nM Compound III.
Human intestinal epithelial enteroid cells were obtained from the Hubrecht Institute for Developmental Biology and Stem Cell Research, Utrecht, The Netherlands and expanded in T-Flasks as previously described (Dekkers J F, Wiegerinck C L, de Jonge H R, Bronsveld I, Janssens H M, de Winter-de Groot K M, Brandsma A M, de Jong N W M, Bijvelds M J C, Scholte B J, Nieuwenhuis E E S, van den Brink S, Clevers H, van der Ent C K, Middendorp S and M Beekman J M. A functional CFTR assay using primary cystic fibrosis intestinal organoids. Nat Med. 2013 July; 19(7):939-45).
c. Enteroid Cell Harvesting and Seeding
Cells were recovered in cell recovery solution, collected by centrifugation at 650 rpm for 5 minutes at 4° C., resuspended in TrypLE and incubated for 5 minutes at 37° C. Cells were then collected by centrifugation at 650 rpm for 5 minutes at 4° C. and resuspended in IEMM containing 10 μM ROCK inhibitor (RI). The cell suspension was passed through a 40 μm cell strainer and resuspended at 1×10^6 cells/mL in IEMM containing 10 μM RI. Cells were seeded at 5000 cells/well into multi-well plates and incubated for overnight at 37° C., 95% humidity and 5% CO2 prior to assay.
d. Membrane Potential Dye, Enteroid Assay A
Enteroid cells were incubated with test compound in IEMM for 18-24 hours at 37° C., 95% humidity and 5% CO2. […] Briefly, cells were washed 5 times in Bath 1 Buffer. Bath 1 Dye Solution was added, and the cells were incubated for 25 minutes at room temperature. Following dye incubation, cells were washed 3 times in Chloride Free Dye Solution. Chloride transport was initiated by addition of Chloride Free Dye Stimulation Solution and the fluorescence signal was read for 15 minutes. […] Chloride transport was then expressed as a percentage of the chloride transport following treatment with 3 μM N-[(6-amino-2-pyridyl)sulfonyl]-6-(3-fluoro-5-isobutoxy-phenyl)-2-[(4S)-2,2,4-trimethylpyrrolidin-1-yl]pyridine-3-carboxamide, 3 μM (R)-1-(2,2-difluorobenzo[d][1,3]dioxol-5-yl)-N-(1-(2,3-dihydroxypropyl)-6-fluoro-2-(1-hydroxy-2-methylpropan-2-yl)-1H-indol-5-yl)cyclopropanecarboxamide and 300 nM acute N-[2,4-bis(1,1-dimethylethyl)-5-hydroxyphenyl]-1,4-dihydro-4-oxoquinoline-3-carboxamide triple combination control (% Activity).

Test [2] has as its target T1, F508del in NIH 3T3 cells (Homo sapiens, UniProt P13569, DEL508-508).
T1 construct: expressed in transfected cells
The test can be described thus: 3T3 assay: membrane potential optical assay for F508del correction. It counts as cell-based, mouse. As to conditions: for EC50: F508del NIH 3T3 cells, compound incubation 18-24 hours at 37° C., forskolin activation, read-out: 3T3 EC50; for Emax: NIH3T3, F508del NIH 3T3 cells, efficacy compared to lumacaftor in combination with acutely added 300 nM Ivacaftor, read-out: 3T3 Max Activity (%). The source says: a. Membrane Potential Optical Methods for Assaying F508del Modulation Properties of Compounds
The assay utilizes fluorescent voltage sensing dyes to measure changes in membrane potential using a fluorescent plate reader (e.g., FLIPR III, Molecular Devices, Inc.) as a readout for increase in functional F508del in NIH 3T3 cells. The driving force for the response is the creation of a chloride ion gradient in conjunction with channel activation by a single liquid addition step after the cells have previously been treated with compounds and subsequently loaded with a voltage sensing dye.
b. Identification of Corrector Compounds
To identify correctors of F508del, a single-addition HTS assay format was developed. This HTS assay utilizes fluorescent voltage sensing dyes to measure changes in membrane potential on the FLIPR III as a measurement for increase in gating (conductance) of F508del in F508del NIH 3T3 cells. The F508del NIH 3T3 cell cultures were incubated with the corrector compounds at a range of concentrations for 18-24 hours at 37° C., and subsequently loaded with a redistribution dye. The driving force for the response is a Cl^− ion gradient in conjunction with channel activation with forskolin in a single liquid addition step using a fluorescent plate reader such as FLIPR III.
Bath Solution #1: (in mM) NaCl 160, KCl 4.5, CaCl2 2, MgCl2 1, HEPES 10, pH 7.4 with NaOH.
Chloride-free bath solution: Chloride salts in Bath Solution #1 (above) are substituted with gluconate salts.
NIH3T3 mouse fibroblasts stably expressing F508del are used for optical measurements of membrane potential. The cells are maintained at 37° C. in 5% CO2 and 90% humidity in Dulbecco's modified Eagle's medium supplemented with 2 mM glutamine, 10% fetal bovine serum, 1×NEAA, b-ME, 1× pen/strep, and 25 mM HEPES in 175 cm^2 culture flasks. For all optical assays, the cells were seeded at ˜20,000/well in 384-well Matrigel-coated plates. For the correction assays, the cells are cultured at 37° C. with and without compounds for 16-24 hours.

T1 sequence (P13569 with tags, fused parts or gaps DEL508-508): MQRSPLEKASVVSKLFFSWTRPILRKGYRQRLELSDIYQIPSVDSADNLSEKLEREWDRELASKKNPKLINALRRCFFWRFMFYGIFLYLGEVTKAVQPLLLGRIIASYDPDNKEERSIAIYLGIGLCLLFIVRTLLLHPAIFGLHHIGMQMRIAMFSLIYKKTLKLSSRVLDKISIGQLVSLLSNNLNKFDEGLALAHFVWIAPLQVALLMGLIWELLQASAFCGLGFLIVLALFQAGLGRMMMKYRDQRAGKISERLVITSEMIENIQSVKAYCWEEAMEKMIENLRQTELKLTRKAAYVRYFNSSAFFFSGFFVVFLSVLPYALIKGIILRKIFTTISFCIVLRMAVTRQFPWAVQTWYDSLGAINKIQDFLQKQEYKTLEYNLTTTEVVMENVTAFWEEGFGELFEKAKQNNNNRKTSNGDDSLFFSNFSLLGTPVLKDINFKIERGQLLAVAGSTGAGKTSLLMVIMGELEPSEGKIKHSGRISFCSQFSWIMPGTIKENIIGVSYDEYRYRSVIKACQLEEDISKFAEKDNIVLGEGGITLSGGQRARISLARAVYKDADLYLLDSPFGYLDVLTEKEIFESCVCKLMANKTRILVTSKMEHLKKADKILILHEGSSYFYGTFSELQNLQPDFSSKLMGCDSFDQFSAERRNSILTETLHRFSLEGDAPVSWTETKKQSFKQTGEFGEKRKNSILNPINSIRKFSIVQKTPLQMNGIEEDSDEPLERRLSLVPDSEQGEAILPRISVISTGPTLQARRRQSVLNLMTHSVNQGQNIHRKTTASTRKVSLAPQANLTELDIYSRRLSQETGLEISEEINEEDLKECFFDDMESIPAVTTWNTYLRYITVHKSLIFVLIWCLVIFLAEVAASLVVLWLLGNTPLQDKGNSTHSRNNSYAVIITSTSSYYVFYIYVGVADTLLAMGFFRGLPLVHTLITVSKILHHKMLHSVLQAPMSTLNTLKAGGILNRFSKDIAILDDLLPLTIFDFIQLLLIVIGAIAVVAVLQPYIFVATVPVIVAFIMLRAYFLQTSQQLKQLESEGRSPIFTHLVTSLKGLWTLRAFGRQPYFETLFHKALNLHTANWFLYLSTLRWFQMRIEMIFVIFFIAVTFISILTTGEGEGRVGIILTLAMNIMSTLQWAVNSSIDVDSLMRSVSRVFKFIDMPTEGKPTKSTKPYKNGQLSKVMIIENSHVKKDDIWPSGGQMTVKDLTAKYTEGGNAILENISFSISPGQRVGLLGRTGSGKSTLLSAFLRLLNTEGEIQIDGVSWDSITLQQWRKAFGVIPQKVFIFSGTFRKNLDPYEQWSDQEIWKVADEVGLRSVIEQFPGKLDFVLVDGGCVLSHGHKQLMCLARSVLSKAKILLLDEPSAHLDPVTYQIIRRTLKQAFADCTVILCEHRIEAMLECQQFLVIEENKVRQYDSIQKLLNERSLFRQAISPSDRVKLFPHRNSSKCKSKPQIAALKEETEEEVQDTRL
CFTR-mediated chloride transport in human intestinal epithelial enteroid cells, sequence (P13569 with tags, fused parts or gaps DEL508-508): as above

With `Cc1cccc(C)c1-c1cc2nc(n1)NS(=O)(=O)c1cccc(n1)NC(=O)[C@H]1C[C@H](CN(C(=O)OC(C)(C)C)C1)O2` (single isomer, unassigned) [Compound 17, tert-butyl 19-(2,6-dimethylphenyl)-8,15,15-trioxo-2-oxa-15λ^6-thia-5,9,16,18,21,22-hexaazatetracyclo[15.3.1.13,7.110,14]tricosa-1(21),10,12,14(22),17,19-hexaene-5-carboxylate], in test [1], the “Ent. A Max Activity (%)” value is “+ (+ is <30%)”. As to `Cc1cccc(C)c1-c1cc2nc(n1)NS(=O)(=O)c1cccc(c1)NC(=O)C1CC(O2)C(C)(C)N(Cc2ccccc2)C1` (single isomer, unassigned) [Compound 74, 5-benzyl-19-(2,6-dimethylphenyl)-4,4-dimethyl-2-oxa-15λ^6-thia-5,9,16,18,21-pentaazatetracyclo[15.3.1.13,7.110,14]tricosa-1(21),10,12,14(22),17,19-hexaene-8,15,15-trione], the “Ent. A Max Activity (%)” value in test [1] is given as “+ (+ is <30%)”. The same measure, in the same setting: for `Cc1cccc(C)c1-c1cc2nc(n1)NS(=O)(=O)c1cccc(c1)NC(=O)[C@H]1C[C@H](CN1C(=O)OC(C)(C)C)O2` [Compound 79] the value was “+ (+ is <30%)”. Regarding `Cc1cccc(C)c1-c1cc2nc(n1)NS(=O)(=O)c1cccc(c1)NC(=O)[C@@H]1C[C@@H](CN(CCCC(C)(C)C)C1)O2` [Compound 22], in test [1], the “Ent. A Max Activity (%)” value is listed as “++ (++ is 30-60%)” and the EC50 is < 1000 nM.

In the case of `CCCCN1C[C@@H]2C[C@H](C1)C(=O)Nc1cccc(c1)S(=O)(=O)Nc1nc(cc(-c3c(C)cccc3C)n1)O2` [Compound 40], in test [1], the “Ent. A Max Activity (%)” value is on record as “++ (++ is 30-60%)” and the EC50 was < 1000 nM.

`Cc1cccc(C)c1-c1cc2nc(n1)NS(=O)(=O)c1cccc(c1)NC(=O)[C@@H]1C[C@@H](CN(C(=O)OCC(C)(C)C)C1)O2` [Compound 34]: in test [1], the “Ent. A Max Activity (%)” value is given as “+++ (+++ is >60%)” and the EC50 is < 1000 nM. For `Cc1cccc(C)c1-c1cc2nc(n1)NS(=O)(=O)c1cccc(c1)NC(=O)[C@@H]1C[C@@H](CN(CC(C)C(F)(F)F)C1)O2` (stereo partly drawn) [Compound 29] the same measures were “+++ (+++ is >60%)” and < 1000 nM. For `CCCCCOC(=O)N1C[C@@H]2C[C@H](C1)C(=O)Nc1cccc(c1)S(=O)(=O)Nc1nc(cc(-c3c(C)cccc3C)n1)O2` [Compound 35] the same measures were “+++ (+++ is >60%)” and < 1000 nM.

Consider `Cc1cccc(C)c1-c1cc2nc(n1)NS(=O)(=O)c1cccc(c1)NC(=O)[C@@H]1C[C@H](O2)C(=O)N(CCC(C)(C)C)C1` [Compound 88], for which, in test [1], the “Ent. A Max Activity (%)” value is “++ (++ is 30-60%)” and the EC50 is 3000 to 30000 nM. In the case of `Cc1cccc(C)c1-c1cc2nc(n1)NS(=O)(=O)c1cccc(c1)NC(=O)[C@@H]1C[C@@H](CN(S(=O)(=O)CC(C)(C)C)C1)O2` [Compound 19], in test [1], the “Ent. A Max Activity (%)” value is “++ (++ is 30-60%)” and the EC50 was < 1000 nM. For the compound `COc1ccccc1-c1cc2nc(n1)NS(=O)(=O)c1cccc(c1)NC(=O)c1cccc(c1)O2` [Compound 87], in test [2], the EC50 fell in the range of 1000 to 3000 nM and the Emax is > 60%.

As to `Cc1ccccc1-c1cc2nc(n1)NS(=O)(=O)c1cccc(c1)N(C)C(=O)c1cccc(c1)O2` [Compound 115], in test [2], the EC50 is 3000 to 30000 nM and the Emax is > 60%. Take `Cc1cccc(C)c1-c1cc2nc(n1)NS(=O)(=O)c1cccc(c1)NC(=O)c1cc(ccc1N1CCCCC1)O2` [Compound 56, 5-(2,6-Dimethylphenyl)-9,9-dioxo-18-(1-piperidyl)-2-oxa-9λ^6-thia-6,8,15,23-tetraazatetracyclo[15.3.1.13,7.110,14]tricosa-1(21),3,5,7(23),10(22),11,13,17,19-nonaen-16-one]: in test [2], the EC50 is < 1000 nM and the Emax is > 60%.

Consider `Cc1cccc(C)c1-c1cc2nc(n1)NS(=O)(=O)c1cccc(c1)NC(=O)C1CC(CN1C(=O)OC(C)(C)C)O2` (stereo not drawn) [Compound 98], for which, in test [2], the EC50 was 1000 to 3000 nM and the Emax is > 60%. With `Cc1cccc(C)c1-c1cc2nc(n1)NS(=O)(=O)c1cccc(c1)NC(=O)C(NC(=O)OC(C)(C)C)CCO2` (stereo not drawn) [Compound 95], in test [2], the EC50 was < 1000 nM and the Emax is > 60%.

In the case of `Cc1cccc(C)c1-c1cc2nc(n1)NS(=O)(=O)c1cccc(c1)NC(=O)c1cccc(c1Cl)O2` [Compound 116], in test [2], the EC50 is < 1000 nM and the Emax was > 60%. Consider `Cc1cccc(C)c1-c1cc2nc(n1)NS(=O)(=O)c1cccc(c1)NC(=O)c1cccc(c1C)O2` (single isomer, unassigned) [Compound 61, (−)-5-(2,6-dimethylphenyl)-21-methyl-9,9-dioxo-2-oxa-9λ^6-thia-6,8,15,23-tetraazatetracyclo[15.3.1.13,7.110,14]tricosa-1(20),3,5,7(23),10(22),11,13,17(21),18-nonaen-16-one], for which the EC50 in test [2] was < 1000 nM.

With `Cc1cccc(C)c1-c1cc2nc(n1)NS(=O)(=O)c1cccc(c1)NC(=O)c1cc(cc(N3CCNCC3)c1)O2` [Compound 99], in test [2], the EC50 lay in the range of 3000 to 30000 nM and the Emax was 30 to 60%.

With `Cc1cccc(C)c1-c1cc2nc(n1)NS(=O)(=O)c1cccc(c1)NC(=O)c1cccc(c1C)O2` (single isomer, unassigned) [Compound 60, (+)-5-(2,6-Dimethylphenyl)-21-methyl-9,9-dioxo-2-oxa-9λ^6-thia-6,8,15,23-tetraazatetracyclo[15.3.1.13,7.110,14]tricosa-1(20),3,5,7(23),10(22),11,13,17(21),18-nonaen-16-one], in test [2], the EC50 is < 1000 nM and the Emax was > 60%.

For `O=C1Nc2cccc(c2)S(=O)(=O)Nc2nc(cc(-c3ccccc3O)n2)Oc2cccc1c2` [Compound 84], in test [2], the EC50 lay within 3000 to 30000 nM and the Emax is > 60%.

By EC50 is commonly meant the concentration giving half of the maximal effect.
